# Experimental data reported in patent US20080275084A1, “Piperidines for the Treatment of Chemokine Mediated Diseases” (ASTRAZENECA AB, priority 2005, published 2008).
# Counter-ions that a name gives are not always drawn.
# Tests used:
# human H1 receptor = biological target: T1, human H1 receptor (Homo sapiens, UniProt P35367); assay: Histamine H1 receptor binding, competition displacement of [3H]-pyrilamine; details: displacement of 1 nM [3H]-pyrilamine, membranes of recombinant CHO-K1 cells expressing human H1 receptor, 1 hour at room temperature; for Ki: read-out: H1 pKi (converted)
# T1 construct: purchased Euroscreen SA, Brussels, Belgium ES-390-M; host or cells: CHO-K1
# T1 sequence (P35367 whole entry): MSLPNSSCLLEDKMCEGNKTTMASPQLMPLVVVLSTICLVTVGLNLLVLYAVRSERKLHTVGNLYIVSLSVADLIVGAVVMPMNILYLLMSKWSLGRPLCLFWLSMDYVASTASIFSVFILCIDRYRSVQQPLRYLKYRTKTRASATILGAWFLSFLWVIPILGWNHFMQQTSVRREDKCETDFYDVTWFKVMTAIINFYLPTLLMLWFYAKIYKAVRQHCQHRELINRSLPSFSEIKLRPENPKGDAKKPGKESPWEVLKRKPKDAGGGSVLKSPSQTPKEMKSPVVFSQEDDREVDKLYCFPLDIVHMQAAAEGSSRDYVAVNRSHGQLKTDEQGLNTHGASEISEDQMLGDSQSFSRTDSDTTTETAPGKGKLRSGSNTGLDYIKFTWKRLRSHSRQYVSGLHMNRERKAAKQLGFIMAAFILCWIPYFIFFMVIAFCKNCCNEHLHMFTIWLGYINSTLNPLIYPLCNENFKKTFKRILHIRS
# Experimental: Histamine H1 receptor binding activity of compounds of the invention was assessed by competition displacement of 1 nM [3H]-pyrilamine (Amersham, Bucks, Product code TRK 608, specific activity 30 Ci/mmol) to 2 μg membranes prepared from recombinant CHO-K1 cells expressing the human H1 receptor (Euroscreen SA, Brussels, Belgium, product code ES-390-M) in assay buffer (50 mM Tris pH 7.4 containing 2 mM MgCl2, 250 mM sucrose and 100 mM NaCl) for 1 hour at room temperature.
# The following compounds of the invention gave inhibition of [3H]pyrilamine binding: […]
# recombinant human CCR3 = biological target: T2, recombinant human CCR3 (Homo sapiens, UniProt P51677); assay: Compound affinity at human recombinant CCR3 receptors, radioligand competition on CHO-K1 cell membranes; type: binding; details: competition with 2 nM [3H]-4-(2,4-dichloro-3-methylphenoxy)-1'-[4-(methylsulfonyl)benzoyl]-1,4'-bipiperidine, 2 h at 37° C., mean pKi by Cheng-Prussof correction of pIC50, minimum 2 experiments
# T2 construct: expressed in transfected cells; host or cells: CHO-K1
# T2 sequence (P51677 1-355): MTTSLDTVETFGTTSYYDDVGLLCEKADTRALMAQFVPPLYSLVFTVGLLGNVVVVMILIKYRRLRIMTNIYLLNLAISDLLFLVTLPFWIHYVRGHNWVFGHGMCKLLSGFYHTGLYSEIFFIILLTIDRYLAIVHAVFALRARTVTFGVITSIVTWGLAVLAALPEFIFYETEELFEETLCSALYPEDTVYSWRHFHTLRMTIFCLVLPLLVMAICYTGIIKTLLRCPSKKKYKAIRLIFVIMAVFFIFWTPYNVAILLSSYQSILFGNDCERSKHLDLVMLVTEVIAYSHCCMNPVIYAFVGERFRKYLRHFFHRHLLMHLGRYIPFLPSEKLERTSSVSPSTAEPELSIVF
# Experimental: Determination of Compound Affinity at Human Recombinant CCR3 Receptors Assessed by Competition of [^3H]-4-(2,4-dichloro-3-methylphenoxy)-1′-[4-(methylsulfonyl)benzoyl]-1,4′-bipiperidine for CHO-K1 Cell Membranes In Vitro
# Membranes, prepared from CHO-K1 cells stably expressing recombinant human CCR3, suspended in assay buffer (50 mM Tris-Base, pH 7.4; containing sodium chloride (100 mM) and magnesium chloride (2 mM)) were incubated in the presence of 2 nM [^3H]-4-(2,4-dichloro-3-methylphenoxy)-1′-[4-(methylsulfonyl)benzoyl]-1,4′-bipiperidine, along with vehicle (1% (v/v) DMSO), 4-(4-chloro-3-methylphenoxy)-1′-[2-(methylsulfonyl)benzoyl]-1,4′-bipiperidine (to define non-specific binding) or test compound for 2 h at 37° C. in round bottomed 96-well plates. The plates were then filtered onto GF/B filter plates, pre-soaked for 1 hour in plate-coating solution (0.3% (w/v) polyethylenimine, 0.2% (w/v) BSA in de-ionised water), using a 96-well plate Tomtec cell harvester. Four washes (250 μL) with wash buffer (50 mM Tris-Base, pH 7.4 containing sodium chloride (500 mM) and magnesium chloride (2 mM)) were performed at 4° C. to remove unbound radioactivity. […] The plates were sealed (TopSeal A) and filter-bound radioactivity was measured with a scintillation counter (TopCount, Packard BioScience) using a 1 minute counting protocol. […]
Compound,Ki (human H1 receptor) [nM],further results
"O=C(O)[C@H](CC1CCCC1)N1CCC(CN2CCC(Oc3ccc(Cl)c(Cl)c3)CC2)CC1 [Example 4A, (2S)-3-Cyclopentyl-2-(4-{[4-(3,4-dichlorophenoxy)piperidin-1-yl]methyl}piperidin-1-yl)propanoic acid]",126,
"Cc1c(OC2CCN(CC3CCN([C@@H](CC4CC4)C(=O)O)CC3)CC2)ccc(Cl)c1Cl [Example 3A, (2S)-3-Cyclopropyl-2-(4-{[4-(3,4-dichloro-2-methylphenoxy)piperidin-1-yl]methyl}piperidin-1-yl)propanoic acid]",200,
"(2S)-3-cyclohexyl-2-(4-{[4-(3,4-dichloro-2-methylphenoxy)piperidin-1-yl]methyl}piperidin-1-yl)propanoic acid [Example 1A]",,H1 pKi (human H1 receptor): 7.2
"O=C(O)C1(N2CCC(CN3CCC(Oc4ccc(Cl)c(Cl)c4)CC3)CC2)CCCCC1 [Example 6A, 1-(4-{[4-(3,4-dichlorophenoxy)piperidin-1-yl]methyl}piperidin-1-yl)cyclohexanecarboxylic acid]",501,
"Cc1cc(Cl)ccc1OC1CCN(CC2CCN([C@@](C)(CC(C)C)C(=O)O)CC2)CC1 [Example 16A, (2S)-2-{4-[4-(4-Chloro-2-methyl-phenoxy)-piperidin-1-ylmethyl]-piperidin-1-yl}-2,4-dimethyl-pentanoic acid]",,Ki (recombinant human CCR3): 0.631 nM
"Cc1c(OC2CCN(CC3CCN([C@@H](CC4CCCCC4)C(=O)O)CC3)CC2)ccc(Cl)c1Cl [Example 2A, (2S)-3-Cyclohexyl-2-(4-{[4-(3,4-dichloro-2-methylphenoxy)piperidin-1-yl]methyl}piperidin-1-yl)propanoic acid]",79.4,
"Cc1c(OC2CCN(CC3CCN(C4(C(=O)O)CCCC4)CC3)CC2)ccc(Cl)c1Cl [Example 8A, 1-(4-{[4-(3,4-dichloro-2-methylphenoxy)piperidin-1-yl]methyl}piperidin-1-yl)cyclopentanecarboxylic acid]",316,
"Cc1cc(Cl)ccc1OC1CCN(CC2CCN(C3(C(=O)O)CCCCC3)CC2)CC1 [Example 13A, 1-(4-{[4-(4-Chloro-2-methylphenoxy)piperidin-1-yl]methyl}piperidin-1-yl)cyclohexanecarboxylic acid dihydrochloride]",631,
